Reference: article PMC11996864, “A small-molecule inhibitor of BCL10-MALT1 interaction abrogates progression of diffuse large B cell lymphoma” (The Journal of Clinical Investigation, 2025)
Where “and” joins values, the source holds several entries; their conditions need not be identical. Equal values may be shown once. Read-outs that look alike come from different tables or passages of the source.

Legend:
[1] = In vivo pharmacokinetics, plasma LC-MS/MS
Protocol: Pharmacokinetic and cytochrome P450 inhibition studies. Studies were performed with the assistance of Touchstone Biosciences (Plymouth Meeting, Pennsylvania). For pharmacokinetic bioanalysis, male CD-1 mice were fasted overnight before being dosed with M1i-124 via oral gavage (20mg/kg), intraperitoneal injection in the lower right quadrant of the abdomen (20 mg/kg), or intravenous tail vein injection (5 mg/kg). All blood samples were taken via tail vein at 5, 15, and 30 minutes, and 1, 2, 4, 6, 8, and 24 hours after compound administration. The plasma concentration of the compound was determined using LC-MS/MS analysis. […]

OCI-Ly3 cells = assay: Apoptosis, annexin V/SYTOX Blue flow cytometry; assay type: cell-based, human
Protocol: Cell proliferation, viability, and apoptosis assays. […]
Annexin V Alexa 488
(ThermoFisher Scientific, Cat# A13201) and SYTOX Blue Dead Cell (ThermoFisher Scientific, Cat# S34857) stains were used to detect apoptosis in DLBCL cells after treatment with 1 µM compounds for 8 days in TMD8 and OCI-Ly1 and for 5 days in OCI-Ly3 cells, then analyzed with flow cytometry. The percentages of cells in early and late apoptosis were combined for quantification. For CellTrace Violet, CellTiter-glo, and Annexin V apoptosis assays, cell were cultured in media with 50% of the usual serum. […]

OCI-Ly1 xenografts = assay: OCI-Ly1 xenograft in NSG mice; assay type: in vivo, mouse; conditions: daily i.p., result in words
Excerpt: TMD8 cells were engrafted into 8-week-old female NOD.CB17-Prkdc^scid/J (NOD-SCID) mice from The Jackson Laboratory by subcutaneous injection of 10 × 10^6 cells resuspended in 50% Cultrex Basement Membrane Extract (R&D Systems, catalog 3632-010-02) into the right flank. OCI-Ly3 cells were engrafted into 5-week-old female NOD.Cg-Prkdc^scid Il2rg^tm1Wjl/SzJ (NSG) mice from The Jackson Laboratory by subcutaneous injection of 2.5 × 10^6 cells resuspended in Cultrex as above. OCI-Ly1 cells were engrafted into 6.5-week-old female NSG mice from The Jackson Laboratory by subcutaneous injection of 20 × 10^6 cells resuspended in Cultrex as above. For all xenograft models, when tumors reached an average volume of 100 mm^3, mice were randomized to receive M1i-124 (50 mg/kg i.p. per day), or equivalent volume of DMSO vehicle (50 μL i.p. per day). […] Tumor size was measured 3 times a week using a caliper and calculated using the formula (smallest diameter^2 × largest diameter)/2. Mice were sacrificed 24 hours after the last injection. Mice were sacrificed when the largest tumors reached 2,500 mm^3. For TMD8 xenograft experiments, tumors and various organs, including lung, heart, liver, and kidney, were collected and fixed in 10% buffered formalin, embedded in FFPE blocks, sectioned, and stained with H&E. Sections were evaluated by a board-certified pathologist.

C57BL/6 mice = assay: Long-term (28 days) in vivo toxicity; set-up: species or system mouse
Protocol: Long-term in vivo toxicity experiments. WT C57/BL6 (The Jackson Laboratory) male and female mice were treated daily with 50 mg/kg M1i-124 or vehicle control for 28 days. At the time of sacrifice, blood was obtained for complete blood count, alanine transaminase, albumin, and total bilirubin (Abaxis). Livers from control and M1i-124 treated mice were collected for H&E analysis. […]

[2] = male, CD-1, mouse, plasma, iv, 5 mg/kg, IV, read-out: Plasma concentration (IV)
[3] = male, CD-1, mouse, plasma, po, 20 mg/kg, PO, read-out: Plasma concentration (PO)
[4] = 28 days, vs control, result in words

Structure (SMILES): O=S(=O)(NCc1ccc2c(c1)OCO2)c1ccc(Cc2ccc(S(=O)(=O)NCc3ccc4c(c3)OCO4)cc2)cc1 [M1i-124]
- Cmax ([1]; male, CD-1, mouse, plasma, ip, mice, 20 mg/kg i.p., read-out: mean peak plasma concentration (Cmax)): 681 ng/mL
- half-life ([1]; male, CD-1, mouse, plasma, ip, mice, 20 mg/kg i.p., read-out: t1/2 (converted)): 6.33 h
- concentration at 0.083 h [1, 2]: 2070 ng/mL
- concentration at 0.25 h [1, 2]: 1200 ng/mL
- concentration at 0.5 h [1, 2]: 361 ng/mL
- concentration at 1 h [1, 2]: 122 ng/mL
- concentration at 2 h [1, 2]: 24.3 ng/mL
- concentration at 4 h [1, 2]: 13.4 ng/mL
- concentration at 6 h [1, 2]: 11.6 ng/mL
- concentration at 8 h [1, 2]: 8.84 ng/mL
- concentration at 24 h ([1]; male, CD-1, mouse, plasma, iv, 5 mg/kg, IV, 24 hours, read-out: Plasma concentration (IV)): 2.62 ng/mL
- C0 ([1]; male, CD-1, mouse, plasma, iv, mice, 5 mg/kg i.v., read-out: mean initial plasma concentration): 1860 ng/mL
- Vd ([1]; male, CD-1, mouse, plasma, iv, mice, 5 mg/kg i.v., read-out: steady-state volume of distribution (Vss)): 15.4 L/kg
- clearance ([1]; male, CD-1, mouse, plasma, iv, mice, 5 mg/kg i.v., read-out: systemic clearance): 77.9 mL/min/kg
- half-life ([1]; male, CD-1, mouse, plasma, iv, mice, 5 mg/kg i.v., read-out: terminal half-life (t1/2) (converted)): 8.72 h
- concentration at 0.083 h [1, 3]: 310 ng/mL
- concentration at 0.25 h [1, 3]: 78.2 ng/mL
- concentration at 0.5 h [1, 3]: 35.8 ng/mL
- concentration at 1 h [1, 3]: 22.5 ng/mL
- concentration at 2 h [1, 3]: 17.7 ng/mL
- concentration at 4 h [1, 3]: 11.5 ng/mL
- concentration at 6 h [1, 3]: 13.1 ng/mL
- concentration at 8 h [1, 3]: 11.7 ng/mL
- concentration at 24 h ([1]; male, CD-1, mouse, plasma, po, 20 mg/kg, PO, 24 hours, read-out: Plasma concentration (PO)): 3.18 ng/mL
- half-life ([1]; male, CD-1, mouse, plasma, po, mice, 20 mg/kg p.o., read-out: t1/2 (converted)): 8.76 h
- Cmax ([1]; male, CD-1, mouse, plasma, mice, 20 mg/kg oral, read-out: Cmax): 294 ng/mL
- adverse clinical signs during PK studies ([1]; mice, 24 hours, result in words): No adverse clinical signs were observed
- apoptosis of OCI-Ly3 cells (OCI-Ly3 cells; 1 μM, result in words): selectively induced apoptosis
- Percent Apoptotic cells (OCI-Ly3 cells; OCI-Ly3): 91.3% and 82.7% and 75% and 93.6% and 88.1% and 93.3% and 87.8% and 75.8%
- OCI-Ly1 xenograft growth (OCI-Ly1 xenografts): no effect
- Albumin (C57BL/6 mice; 28 days, result in words): decrease in albumin
- alanine transaminase or total bilirubin (C57BL/6 mice; 28 days, result in words): did not result in a change
- liver histology (H&E) (C57BL/6 mice; 28 days, result in words): no appreciable difference
- blood counts (white blood cell count, hemoglobin, platelet count) (C57BL/6 mice; [4]): did not result in a statistically significant change
- change in weight (C57BL/6 mice; [4]): did not result in a statistically significant change
- % change in body weight (C57BL/6 mice; C57BL/6 mice, 50 mg/kg daily, 28 days, 50 mg/kg): 9.778% and 0% and 8.3% and 7.514% and 2.89% and 0.5714% and 7.273% and 4.7619%
- ALT (C57BL/6 mice; individual mice): 35 U/L and 100 U/L and 26 U/L and 120 U/L and 180 U/L and 125 U/L
- Albumin (C57BL/6 mice; individual mice): 3.5 g/dL and 2.5 g/dL and 2.1 g/dL and 1.9 g/dL and 3.2 g/dL
- Hemoglobin (C57BL/6 mice; individual mice): 13.2 g/dL and 10.9 g/dL and 13.7 g/dL and 12.6 g/dL and 14 g/dL and 12 g/dL and 10.3 g/dL and 11.3 g/dL and 12.9 g/dL
- Platelets (C57BL/6 mice; individual mice): 439 10^9/L and 412 10^9/L and 524 10^9/L and 394 10^9/L and 557 10^9/L and 522 10^9/L and 479 10^9/L and 381 10^9/L and 186 10^9/L
- Total Bilirubin (C57BL/6 mice; individual mice): 0.3 mg/dL and 0.4 mg/dL and 0.2 mg/dL
- WBC (C57BL/6 mice; individual mice): 8.15 10^9/L and 3.97 10^9/L and 4.01 10^9/L and 2.58 10^9/L and 5.28 10^9/L and 4.82 10^9/L and 3.12 10^9/L and 3.23 10^9/L and 1.49 10^9/L
- in vivo tolerability (C57BL/6 mice; result in words): well tolerated with minimal toxicity
